According to patent US20250236610A1, “3-[(1H-PYRAZOL-4-YL)OXY]PYRAZIN-2-AMINE COMPOUNDS AS HPK1 INHIBITOR AND USE THEREOF” (BeiGene, Ltd., priority 2020, published 2025):

What was measured:
[1] = target: HPK1 kinase (aa1-346, Life Technologies) (Homo sapiens (Human), UniProt Q92918); assay: HPK Kinase Activity Assay at 1 mM ATP (TR-FRET); format: biochemical; conditions: HPK1 kinase 40 nM, 0.5 μM STK1 substrate, read-out: Enzymatic activity IC50
[2] = system: pSLP76(S376) level in Jurkat cell line; assay: Cellular pSLP76(S376) HTRF Assay; format: cell-based; conditions: Homo sapiens, Jurkat cells, 2 h compound treatment, 0.05 μg/mL anti-human CD3 (OKT3) 30 min

HPK1 kinase (aa1-346, Life Technologies), sequence (Q92918 1-346): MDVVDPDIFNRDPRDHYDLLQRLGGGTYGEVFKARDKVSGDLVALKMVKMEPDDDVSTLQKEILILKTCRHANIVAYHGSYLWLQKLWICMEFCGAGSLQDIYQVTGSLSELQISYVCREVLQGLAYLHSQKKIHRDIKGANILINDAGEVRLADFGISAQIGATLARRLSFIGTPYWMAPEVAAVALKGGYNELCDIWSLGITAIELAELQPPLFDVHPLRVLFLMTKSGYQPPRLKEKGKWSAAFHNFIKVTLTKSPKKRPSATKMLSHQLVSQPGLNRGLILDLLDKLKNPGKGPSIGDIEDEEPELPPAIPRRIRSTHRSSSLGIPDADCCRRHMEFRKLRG

IC50 [1] [nM] | IC50 [2] [nM] | SMILES
44 | – | C[C@@H]1COCCN1c1cc(-c2cnc(N)c(Oc3cnn(C4CCN(C)CC4)c3)n2)cc([C@@]2(O)CCO[C@@H]2C)c1 (single isomer, unassigned) [Example A95A]
4.5 | 68 | C[C@@H]1COCCN1c1cc(-c2cnc(N)c(Oc3cnn(C4CCN(C)CC4)c3)n2)cc([C@]2(O)CCO[C@H]2C)c1 (single isomer, unassigned) [Example A95B]
